Test results reported in patent publication US11596639B2, “Substituted indole Mcl-1 inhibitors” (Vanderbilt University, priority 2016, dated 2023).
Where two headings read alike, the source gives them in different places.

Tests used:
[1] = test system: H929 human cancer cell lines; assay: Cellular viability / proliferation (Cell TiterGlo, 72 h); assay type: cell-based
Summary of the method: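 Plating is at 1,000 cells/well in 10% FBS medium; after 24 h, compound is added as a 2-fold series starting at 50 μM with under 1% DMSO.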

[2] = target: Mcl-1 (Homo sapiens (Human), UniProt Q07820); assay: TR-FRET binding assay, FITC-Bak peptide and MBP-tagged Mcl-1; conditions: read-out: Ki for Inhibition of Mcl-1 by TR-FRET assay
Procedure: Compounds are diluted in DMSO in a 16-point, semilog serial dilution scheme. […] The plate was mixed and incubated for 3 hours at room temperature. […] TR-FRET signal is plotted and IC50 and Ki values are calculated in the same manner as the fluorescence polarization anisotropy based competition assays.

[3] = Homo sapiens, NCI-H929, 72 h, read-out: GI50 on cellular proliferation of H929 human cancer cell lines, H929 cells, 72 h, Cell TiterGlo, 10% FBS

Mcl-1, sequence (Q07820 172-327): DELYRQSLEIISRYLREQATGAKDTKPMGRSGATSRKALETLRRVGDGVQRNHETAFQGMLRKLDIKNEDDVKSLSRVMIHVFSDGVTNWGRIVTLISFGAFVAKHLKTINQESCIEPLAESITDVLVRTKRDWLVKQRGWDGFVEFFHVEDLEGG

Cc1cc(N2C[C@@H](C)n3c(c(CCCOc4cc(C)c(Cl)c(C)c4)c4ccc(Cl)c(-c5c(C)nn(C)c5C)c43)C2=O)c2c(c1)cc(C(=O)O)n2Cc1cc(C2=NCCO2)ccn1 [Example 600, (R)-7-(7-chloro-10-(3-(4-chloro-3,5-dimethylphenoxy)propyl)-4-methyl-1-oxo-6-(1,3,5-trimethyl-1H-pyrazol-4-yl)-3,4-dihydropyrazino[1,2-a]indol-2(1H)-yl)-1-((4-(4,5-dihydrooxazol-2-yl)pyridin-2-yl)methyl)-5-methyl-1H-indole-2-carboxylic acid]
GI50 [1, 3]: 2500 nM | Ki [2]: < 0.2 nM

Cc1cc(OCCCc2c3n(c4c(-c5c(C)nn(C)c5C)c(Cl)ccc24)[C@H](C)CN(c2cccc4c(C(=O)O)c5n(c24)CCN(C)C5=O)C3=O)cc(C)c1Cl [Example 562, (R)-7-chloro-10-(3-(4-chloro-3,5-dimethylphenoxy)propyl)-2′,4-dimethyl-1,1′-dioxo-6-(1,3,5-trimethyl-1H-pyrazol-4-yl)-1′,2′,3,3′,4,4′-hexahydro-1H-[2,6′-bipyrazino[1,2-a]indole]-10′-carboxylic acid]
GI50 [1, 3]: 1200 nM | Ki [2]: 0.97 nM

Cc1cccc(Cn2c(C(=O)O)cc3cc(OCCN(C)C)cc(N4C[C@@H](C)n5c(c(CCCOc6cc(C)c(Cl)c(C)c6)c6ccc(Cl)c(-c7c(C)ncnc7C)c65)C4=O)c32)n1 [Example 566, (R)-7-(7-chloro-10-(3-(4-chloro-3,5-dimethylphenoxy)propyl)-6-(4,6-dimethylpyrimidin-5-yl)-4-methyl-1-oxo-3,4-dihydropyrazino[1,2-a]indol-2(1H)-yl)-5-(2-(dimethylamino)ethoxy)-1-((6-methylpyridin-2-yl)methyl)-1H-indole-2-carboxylic acid]
GI50 [1, 3]: 410 nM | Ki [2]: < 0.2 nM

COc1ccc(N2C[C@@H](C)n3c(c(CCCOc4cc(C)c(Cl)c(C)c4)c4ccc(Cl)c(-c5c(C)nc(CN(C)C)nc5C)c43)C2=O)c2c1cc(C(=O)O)n2Cc1ccccn1 [Example 482, (R)-7-(7-Chloro-10-(3-(4-chloro-3,5-dimethylphenoxy)propyl)-6-(2-((dimethylamino)methyl)-4,6-dimethylpyrimidin-5-yl)-4-methyl-1-oxo-3,4-dihydropyrazino[1,2-a]indol-2(1H)-yl)-4-methoxy-1-(pyridin-2-ylmethyl)-1H-indole-2-carboxylic acid]
GI50 [1, 3]: 340 nM | Ki [2]: < 0.2 nM

Cc1cc(OCCCc2c3n(c4c(-c5c(C)nn(C)c5C)c(Cl)ccc24)[C@H](C)CN(c2cc(CCN4CCN(C)CC4)cc4cc(C(=O)O)n(C)c24)C3=O)cc(C)c1Cl [Example 725, (R)-7-(7-chloro-10-(3-(4-chloro-3,5-dimethylphenoxy)propyl)-4-methyl-1-oxo-6-(1,3,5-trimethyl-1H-pyrazol-4-yl)-3,4-dihydropyrazino[1,2-a]indol-2(1H)-yl)-1-methyl-5-(2-(4-methylpiperazin-1-yl)ethyl)-1H-indole-2-carboxylic acid]
GI50 [1, 3]: < 200 nM | Ki [2]: < 0.2 nM

Cc1nnn(-c2ccc3c(n2)c(N2C[C@@H](C)n4c(c(CCCOc5cc(C)c(Cl)c(C)c5)c5ccc(Cl)c(-c6c(C)nn(C)c6C)c54)C2=O)cn3C)n1 [Example 684, (R)-7-Chloro-10-(3-(4-chloro-3,5-dimethylphenoxy)propyl)-4-methyl-2-(1-methyl-5-(5-methyl-2H-tetrazol-2-yl)-1H-pyrrolo[3,2-b]pyridin-3-yl)-6-(1,3,5-trimethyl-1H-pyrazol-4-yl)-3,4-dihydropyrazino[1,2-a]indol-1(2H)-one]
GI50 [1, 3]: 520 nM | Ki [2]: 0.6 nM

Cc1cc(OCCCc2c3n(c4c(-c5c(C)nn(C)c5C)c(Cl)ccc24)[C@H](C)CN(c2cn(CCN(C)C)c4ccc(C(=O)O)cc24)C3=O)cc(C)c1Cl [Example 510, (R)-3-(7-Chloro-10-(3-(4-chloro-3,5-dimethylphenoxy)propyl)-4-methyl-1-oxo-6-(1,3,5-trimethyl-1H-pyrazol-4-yl)-3,4-dihydropyrazino[1,2-a]indol-2(1H)-yl)-1-(2-(dimethylamino)ethyl)-1H-indole-5-carboxylic acid]
GI50 [1, 3]: 240 nM | Ki [2]: < 0.2 nM

COc1cc(N2C[C@@H](C)n3c(c(CCCOc4cc(C)c(Cl)c(C)c4)c4ccc(Cl)c(-c5c(C)nn(C)c5C)c43)C2=O)c2c(c1)cc(C(=O)O)n2Cc1cccc(C)n1 [Example 536, (R)-7-(7-Chloro-10-(3-(4-chloro-3,5-dimethylphenoxy)propyl)-4-methyl-1-oxo-6-(1,3,5-trimethyl-1H-pyrazol-4-yl)-3,4-dihydropyrazino[1,2-a]indol-2(1H)-yl)-5-methoxy-1-((6-methylpyridin-2-yl)methyl)-1H-indole-2-carboxylic acid]
GI50 [1, 3]: < 200 nM | Ki [2]: < 0.2 nM

Cc1cccc(Cn2cc(C(=O)O)c3cccc(N4C[C@@H](C)n5c(c(CCCOc6cc(C)c(Cl)c(C)c6)c6ccc(Cl)c(-c7c(C)nn(C)c7C)c65)C4=O)c32)n1 (single isomer, unassigned) [Example 494]
GI50 ([1]; read-out: GI50 on cellular proliferation of H929 human cancer cell lines, H929 cells, 72 h, Cell TiterGlo, 10% FBS): 450 nM | Ki [2]: 0.3 nM

Cc1cc(OCCCc2c3n(c4c(-c5c(C)nn(C)c5C)c(Cl)ccc24)[C@H](C)CN(c2cc(C(=O)N4CCOCC4)cc4cc(C(=O)O)n(C)c24)C3=O)cc(C)c1Cl [Example 591, (R)-7-(7-chloro-10-(3-(4-chloro-3,5-dimethylphenoxy)propyl)-4-methyl-1-oxo-6-(1,3,5-trimethyl-1H-pyrazol-4-yl)-3,4-dihydropyrazino[1,2-a]indol-2(1H)-yl)-1-methyl-5-(morpholine-4-carbonyl)-1H-indole-2-carboxylic acid]
GI50 [1, 3]: 2800 nM | Ki [2]: < 0.2 nM

COCCOCc1cccn2nc(-c3ccc4c(c3)c(N3C[C@@H](C)n5c(c(CCCOc6cc(C)c(Cl)c(C)c6)c6ccc(Cl)c(-c7c(C)nn(C)c7C)c65)C3=O)cn4C)nc12 [Example 699, (R)-7-Chloro-10-(3-(4-chloro-3,5-dimethylphenoxy)propyl)-2-(5-(8-((2-methoxyethoxy)methyl)-[1,2,4]triazolo[1,5-a]pyridin-2-yl)-1-methyl-1H-indol-3-yl)-4-methyl-6-(1,3,5-trimethyl-1H-pyrazol-4-yl)-3,4-dihydropyrazino[1,2-a]indol-1(2H)-one]
GI50 [1, 3]: 350 nM | Ki [2]: 1.2 nM

COCc1cc(N2C[C@@H](C)n3c(c(CCCOc4cc(C)c(Cl)c(C)c4)c4ccc(Cl)c(-c5c(C)nn(C)c5C)c43)C2=O)c2c(c1)cc(C(=O)O)n2Cc1ccccn1 [Example 691, (R)-7-(7-chloro-10-(3-(4-chloro-3,5-dimethylphenoxy)propyl)-4-methyl-1-oxo-6-(1,3,5-trimethyl-1H-pyrazol-4-yl)-3,4-dihydropyrazino[1,2-a]indol-2(1H)-yl)-5-(methoxymethyl)-1-(pyridin-2-ylmethyl)-1H-indole-2-carboxylic acid]
GI50 [1, 3]: < 200 nM | Ki [2]: < 0.2 nM

COCCn1cc(C(=O)O)c2cccc(N3C[C@@H](C)n4c(c(CCCOc5cc(C)c(Cl)c(C)c5)c5ccc(Cl)c(-c6c(C)nn(C)c6C)c54)C3=O)c21 [Example 512, (R)-7-(7-Chloro-10-(3-(4-chloro-3,5-dimethylphenoxy)propyl)-4-methyl-1-oxo-6-(1,3,5-trimethyl-1H-pyrazol-4-yl)-3,4-dihydropyrazino[1,2-a]indol-2(1H)-yl)-1-(2-methoxyethyl)-1H-indole-3-carboxylic acid]
GI50 [1, 3]: 220 nM | Ki [2]: < 0.2 nM

COCCn1c(C(=O)O)cc2cc(C)cc(N3C[C@@H](C)n4c(c(CCCOc5cc(C)c(Cl)c(C)c5)c5ccc(Cl)c(-c6c(C)ncnc6C)c54)C3=O)c21 [Example 594, (R)-7-(7-chloro-10-(3-(4-chloro-3,5-dimethylphenoxy)propyl)-6-(4,6-dimethylpyrimidin-5-yl)-4-methyl-1-oxo-3,4-dihydropyrazino[1,2-a]indol-2(1H)-yl)-1-(2-methoxyethyl)-5-methyl-1H-indole-2-carboxylic acid]
GI50 [1, 3]: 230 nM | Ki [2]: < 0.2 nM

Cc1cc(OCCCc2c3n(c4c(-c5c(C)nn(C)c5C)c(Cl)ccc24)[C@H](C)CN(c2cn(C)c4ccc(-c5ncn(-c6ccccn6)n5)cc24)C3=O)cc(C)c1Cl [Example 647, (R)-7-Chloro-10-(3-(4-chloro-3,5-dimethylphenoxy)propyl)-4-methyl-2-(1-methyl-5-(1-(pyridin-2-yl)-1H-1,2,4-triazol-3-yl)-1H-indol-3-yl)-6-(1,3,5-trimethyl-1H-pyrazol-4-yl)-3,4-dihydropyrazino[1,2-a]indol-1(2H)-one]
GI50 [1, 3]: 1100 nM | Ki [2]: 0.32 nM

COCCOc1cc(N2C[C@@H](C)n3c(c(CCCOc4cc(C)c(Cl)c(C)c4)c4ccc(Cl)c(-c5c(C)nn(C)c5C)c43)C2=O)c2c(c1)c(C(=O)O)cn2Cc1cc(C)cc(C)n1 [Example 652, (R)-7-(7-chloro-10-(3-(4-chloro-3,5-dimethylphenoxy)propyl)-4-methyl-1-oxo-6-(1,3,5-trimethyl-1H-pyrazol-4-yl)-3,4-dihydropyrazino[1,2-a]indol-2(1H)-yl)-1-((4,6-dimethylpyridin-2-yl)methyl)-5-(2-methoxyethoxy)-1H-indole-3-carboxylic acid]
GI50 [1, 3]: 370 nM | Ki [2]: 0.28 nM

Cc1cc(OCCCc2c3n(c4c(-c5c(C)nn(C)c5C)c(Cl)ccc24)[C@H](C)CN(c2cn(C[C@@H]4CCCN4C)c4ccc(C(=O)O)cc24)C3=O)cc(C)c1Cl [Example 690, 3-((R)-7-chloro-10-(3-(4-chloro-3,5-dimethylphenoxy)propyl)-4-methyl-1-oxo-6-(1,3,5-trimethyl-1H-pyrazol-4-yl)-3,4-dihydropyrazino[1,2-a]indol-2(1H)-yl)-1-(((S)-1-methylpyrrolidin-2-yl)methyl)-1H-indole-5-carboxylic acid]
GI50 [1, 3]: 330 nM | Ki [2]: 0.26 nM
